The test system of series [1] is DU-145. The series can be described thus: Antiproliferative activity against human DU-145 cells measured by Alamarblue assay. The class given is functional.
Series [2] relates to LNCaP. The series can be described thus: Antiproliferative activity against human LNCaP cells measured by Alamarblue assay. The class given is functional. (Resazurin is reduced to fluorescent resorufin, in cell work by metabolically active cells.)
A short description of series [3]: Permeability of compound in human Caco-2 cells. The class given is ADME, cell-based. Conditions: read-out: permeability.
The target in series [4] is T1, Lysine-specific demethylase 4A (Homo sapiens, UniProt O75164).
T1 sequence (O75164 whole entry): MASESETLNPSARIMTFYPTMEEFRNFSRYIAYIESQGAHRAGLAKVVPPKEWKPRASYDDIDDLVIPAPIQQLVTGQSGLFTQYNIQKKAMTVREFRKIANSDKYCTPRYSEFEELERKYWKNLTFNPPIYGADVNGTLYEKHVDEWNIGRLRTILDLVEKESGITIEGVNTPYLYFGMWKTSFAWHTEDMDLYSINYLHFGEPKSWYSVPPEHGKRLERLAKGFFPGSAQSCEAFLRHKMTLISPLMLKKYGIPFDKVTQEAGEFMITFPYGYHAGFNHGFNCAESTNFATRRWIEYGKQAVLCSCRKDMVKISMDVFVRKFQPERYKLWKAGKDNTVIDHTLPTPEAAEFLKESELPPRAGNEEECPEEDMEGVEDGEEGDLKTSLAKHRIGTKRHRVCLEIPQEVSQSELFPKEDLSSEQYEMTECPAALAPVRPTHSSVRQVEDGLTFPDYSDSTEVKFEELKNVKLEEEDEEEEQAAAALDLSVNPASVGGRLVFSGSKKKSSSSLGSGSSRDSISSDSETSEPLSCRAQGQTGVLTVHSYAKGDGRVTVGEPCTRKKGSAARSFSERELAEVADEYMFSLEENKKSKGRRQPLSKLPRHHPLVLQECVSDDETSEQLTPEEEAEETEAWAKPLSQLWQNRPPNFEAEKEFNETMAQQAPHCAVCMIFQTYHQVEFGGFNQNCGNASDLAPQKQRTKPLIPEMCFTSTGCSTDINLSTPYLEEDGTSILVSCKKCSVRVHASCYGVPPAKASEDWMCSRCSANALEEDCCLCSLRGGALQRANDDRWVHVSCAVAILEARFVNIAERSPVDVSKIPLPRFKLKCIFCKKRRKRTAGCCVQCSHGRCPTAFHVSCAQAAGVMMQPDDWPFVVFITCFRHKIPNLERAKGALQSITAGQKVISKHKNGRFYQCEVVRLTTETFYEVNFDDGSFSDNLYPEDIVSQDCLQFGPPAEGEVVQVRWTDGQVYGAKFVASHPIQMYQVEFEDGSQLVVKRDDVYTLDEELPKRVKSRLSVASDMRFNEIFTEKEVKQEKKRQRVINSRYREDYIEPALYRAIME
The series can be described thus: Inhibition of KDM4A (unknown origin) measured by AlphaLisa-based screening assay.

Series [5] deals with T2, Lysine-specific demethylase 4D (Homo sapiens, UniProt Q6B0I6).
T2 sequence (Q6B0I6 whole entry): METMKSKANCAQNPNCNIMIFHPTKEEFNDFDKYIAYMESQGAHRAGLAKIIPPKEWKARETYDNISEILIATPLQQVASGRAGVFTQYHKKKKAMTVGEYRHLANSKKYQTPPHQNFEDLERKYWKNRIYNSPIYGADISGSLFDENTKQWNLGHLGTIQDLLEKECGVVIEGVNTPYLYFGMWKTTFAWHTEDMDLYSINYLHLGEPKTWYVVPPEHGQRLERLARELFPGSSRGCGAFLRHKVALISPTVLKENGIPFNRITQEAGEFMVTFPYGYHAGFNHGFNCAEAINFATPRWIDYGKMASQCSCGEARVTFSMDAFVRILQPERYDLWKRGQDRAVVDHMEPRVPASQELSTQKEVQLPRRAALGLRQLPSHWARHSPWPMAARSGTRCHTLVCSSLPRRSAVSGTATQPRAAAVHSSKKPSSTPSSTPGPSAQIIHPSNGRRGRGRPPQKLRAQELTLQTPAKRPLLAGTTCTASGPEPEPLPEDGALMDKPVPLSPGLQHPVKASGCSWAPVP
The series can be described thus: Inhibition of KDM4D (unknown origin) measured by AlphaLisa-based screening assay.

Series [6] concerns the target T1, Lysine-specific demethylase 4A.
Series [7] has the same target. The source holds these as a separate data set.
For series [8], the target named is T3, Lysine-specific demethylase 2A (Homo sapiens, UniProt Q9Y2K7).
T3 sequence (Q9Y2K7 whole entry): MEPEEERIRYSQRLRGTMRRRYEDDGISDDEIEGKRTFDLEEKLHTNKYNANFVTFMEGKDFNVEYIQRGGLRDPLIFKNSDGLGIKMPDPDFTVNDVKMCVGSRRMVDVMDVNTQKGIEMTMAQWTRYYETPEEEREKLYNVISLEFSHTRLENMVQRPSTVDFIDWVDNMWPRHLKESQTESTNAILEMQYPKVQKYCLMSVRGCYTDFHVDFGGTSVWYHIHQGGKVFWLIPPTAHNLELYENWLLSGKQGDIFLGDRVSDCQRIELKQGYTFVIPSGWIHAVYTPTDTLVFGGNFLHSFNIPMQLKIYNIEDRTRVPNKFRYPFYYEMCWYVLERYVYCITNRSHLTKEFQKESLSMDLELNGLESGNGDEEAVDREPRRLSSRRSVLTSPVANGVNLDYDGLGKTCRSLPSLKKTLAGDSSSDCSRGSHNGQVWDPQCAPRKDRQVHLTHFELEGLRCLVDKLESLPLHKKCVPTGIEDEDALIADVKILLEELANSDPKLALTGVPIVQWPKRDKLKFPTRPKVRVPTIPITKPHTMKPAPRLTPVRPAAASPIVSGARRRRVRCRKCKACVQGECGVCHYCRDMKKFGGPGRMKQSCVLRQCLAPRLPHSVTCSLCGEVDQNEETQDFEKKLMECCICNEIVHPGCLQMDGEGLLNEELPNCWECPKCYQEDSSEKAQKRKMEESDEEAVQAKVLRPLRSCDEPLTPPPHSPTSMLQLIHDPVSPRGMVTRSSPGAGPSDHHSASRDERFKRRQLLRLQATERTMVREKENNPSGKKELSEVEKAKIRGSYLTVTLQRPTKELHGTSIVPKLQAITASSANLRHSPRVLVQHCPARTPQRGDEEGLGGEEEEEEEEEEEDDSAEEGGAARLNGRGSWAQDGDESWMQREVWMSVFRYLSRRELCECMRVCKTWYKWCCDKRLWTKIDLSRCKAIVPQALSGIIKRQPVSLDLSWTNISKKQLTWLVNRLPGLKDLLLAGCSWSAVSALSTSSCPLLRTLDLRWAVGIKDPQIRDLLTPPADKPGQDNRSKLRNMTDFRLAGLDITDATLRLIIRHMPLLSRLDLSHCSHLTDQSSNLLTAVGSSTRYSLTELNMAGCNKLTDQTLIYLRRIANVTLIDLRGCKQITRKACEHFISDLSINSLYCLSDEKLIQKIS
As to the kind of experiment: Inhibition of KDM2A in human MIA PaCa-2 cells assessed as induction of H3K36me2 measured by immunofluorescence assay. The class given is cell-based.

The target of series [9] is T1, Lysine-specific demethylase 4A. As to the kind of experiment: Inhibition of binding of H3K4Me3 to KDM4A tudor domain (unknown origin) measured by NanoBRET-based cellular proximity assay. For orientation: In BRET a luciferase serves as donor, and the signal depends on an acceptor being close.
For series [10], the target named is T2, Lysine-specific demethylase 4D. As to the kind of experiment: Inhibition of human KDM4D measured by AlphaLISA assay. On the technique in general: Alpha assays give light when donor and acceptor beads are brought close together.
Series [11] addresses T4, Lysine-specific demethylase 4C (Homo sapiens, UniProt Q9H3R0).
T4 sequence (Q9H3R0 whole entry): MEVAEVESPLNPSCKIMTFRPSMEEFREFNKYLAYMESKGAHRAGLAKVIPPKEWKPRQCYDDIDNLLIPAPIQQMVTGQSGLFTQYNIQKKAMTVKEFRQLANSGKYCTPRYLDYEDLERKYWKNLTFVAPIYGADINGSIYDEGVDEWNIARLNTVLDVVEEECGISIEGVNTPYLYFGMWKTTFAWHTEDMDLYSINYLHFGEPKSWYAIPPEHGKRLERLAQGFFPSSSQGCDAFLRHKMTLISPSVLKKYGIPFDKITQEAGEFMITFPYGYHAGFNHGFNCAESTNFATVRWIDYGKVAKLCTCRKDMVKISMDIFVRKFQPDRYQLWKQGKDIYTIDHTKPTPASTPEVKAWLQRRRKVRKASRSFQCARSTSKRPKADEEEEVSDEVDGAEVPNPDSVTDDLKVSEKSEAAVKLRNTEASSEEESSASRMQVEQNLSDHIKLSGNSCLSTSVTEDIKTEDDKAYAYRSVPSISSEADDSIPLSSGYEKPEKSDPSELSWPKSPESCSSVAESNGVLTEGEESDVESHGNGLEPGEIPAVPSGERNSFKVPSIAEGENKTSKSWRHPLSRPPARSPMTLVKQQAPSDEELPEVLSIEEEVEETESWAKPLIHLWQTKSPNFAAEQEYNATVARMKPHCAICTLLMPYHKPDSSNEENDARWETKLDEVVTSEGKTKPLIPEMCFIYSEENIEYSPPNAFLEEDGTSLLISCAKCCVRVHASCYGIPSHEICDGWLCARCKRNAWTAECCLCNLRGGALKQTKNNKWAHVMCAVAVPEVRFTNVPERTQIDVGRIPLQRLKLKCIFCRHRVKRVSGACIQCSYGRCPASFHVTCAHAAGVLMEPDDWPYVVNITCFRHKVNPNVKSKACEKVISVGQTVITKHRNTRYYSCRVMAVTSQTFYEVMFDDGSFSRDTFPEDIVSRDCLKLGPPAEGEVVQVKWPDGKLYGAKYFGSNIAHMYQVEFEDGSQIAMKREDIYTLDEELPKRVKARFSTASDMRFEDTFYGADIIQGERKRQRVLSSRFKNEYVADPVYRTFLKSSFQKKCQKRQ
The series can be described thus: Inhibition of human KDM4C measured by AlphaLISA assay.

Series [12] concerns the target T5, Lysine-specific demethylase 4B (Homo sapiens, UniProt O94953).
T5 sequence (O94953 whole entry): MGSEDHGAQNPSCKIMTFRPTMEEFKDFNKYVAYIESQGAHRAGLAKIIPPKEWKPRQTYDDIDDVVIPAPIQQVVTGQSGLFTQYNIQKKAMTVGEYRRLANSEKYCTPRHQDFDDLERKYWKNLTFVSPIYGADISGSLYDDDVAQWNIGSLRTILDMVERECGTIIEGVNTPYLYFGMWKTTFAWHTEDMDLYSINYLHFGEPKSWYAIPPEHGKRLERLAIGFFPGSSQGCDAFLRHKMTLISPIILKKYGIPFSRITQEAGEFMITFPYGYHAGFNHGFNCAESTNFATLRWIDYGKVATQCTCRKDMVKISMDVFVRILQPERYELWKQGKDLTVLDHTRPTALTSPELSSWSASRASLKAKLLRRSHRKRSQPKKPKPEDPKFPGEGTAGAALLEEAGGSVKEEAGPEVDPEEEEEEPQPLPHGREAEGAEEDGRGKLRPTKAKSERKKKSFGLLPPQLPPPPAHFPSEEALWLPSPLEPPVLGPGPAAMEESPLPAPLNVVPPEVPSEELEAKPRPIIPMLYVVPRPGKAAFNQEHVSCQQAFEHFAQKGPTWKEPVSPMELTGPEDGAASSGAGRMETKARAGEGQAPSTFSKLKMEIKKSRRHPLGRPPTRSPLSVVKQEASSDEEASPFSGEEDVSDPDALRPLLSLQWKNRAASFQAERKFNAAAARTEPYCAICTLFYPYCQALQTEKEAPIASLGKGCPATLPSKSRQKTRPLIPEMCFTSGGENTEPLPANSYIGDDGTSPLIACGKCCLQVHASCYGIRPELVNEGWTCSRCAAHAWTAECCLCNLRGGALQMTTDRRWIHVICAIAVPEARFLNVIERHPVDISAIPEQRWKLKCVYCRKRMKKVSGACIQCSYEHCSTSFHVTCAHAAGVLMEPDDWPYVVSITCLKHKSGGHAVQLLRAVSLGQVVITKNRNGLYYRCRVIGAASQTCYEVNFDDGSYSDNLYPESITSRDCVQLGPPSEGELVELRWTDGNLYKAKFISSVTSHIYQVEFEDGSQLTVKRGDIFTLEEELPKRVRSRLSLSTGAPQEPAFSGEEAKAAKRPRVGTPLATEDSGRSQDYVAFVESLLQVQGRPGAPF
The series can be described thus: Inhibition of human KDM4B measured by AlphaLISA assay.

For orientation: GI50 means the concentration at which growth is held to half of that of the control. Low values mean more potent growth inhibition, high ones less potent growth inhibition. Consider `Cc1nn(-c2nc3ccccc3[nH]2)c(O)c1-c1ccccc1`, for which the GI50 in series [1] and in series [2] was 8 µM in each case.

As to `CN(C)CCCNC(=O)c1ccc(-c2cc(O)c3ncccc3c2)cc1`, the Papp in [3] was 12.5 ×10⁻⁶ cm/s.

In general, IC50 refers to the midpoint of a concentration-inhibition curve. On to `CC(C)(C)OC(=O)C[C@@H]1CCN(C(c2ccc(-c3ccncc3)cc2)c2cc3c(cc2O)OCO3)C1` (some centres not stated), for which the IC50 in [4] is above 100 µM; in [5] it was 0.023 µM.

One may read the Ki as the dissociation constant of the complex between target and ligand, obtained from inhibition or displacement. Read a low Ki as higher affinity. `CN(C)c1ccc(/C=C/c2cc[n+](Cc3ccc(F)cc3)cc2)cc1`: the Ki in [6] amounted to 0.42 µM. For the same compound, the IC50 in series [7] and in series [8] was 0.28 µM in each case.

As usually defined, the EC50 is the concentration giving half of the maximal effect. Take `CN(C)C[C@H]1[C@H]2CC[C@](c3ccccc3)(C2)[C@H]1O`: a half-maximal effect in [9] (EC50) was put at 105 µM.

As for `O=C(O)c1cc(O)c(=O)c2c(O)c(O)cc(-c3ccccc3)c2c1`, the IC50 in series [10], in series [11] and in [12] was 24.4 µM throughout.
